Reference: patent EP4678638A1, “NEW E3 UBIQUITIN LIGASE LIGAND, PROTEIN DEGRADATION AGENT AND USE THEREOF” (priority 2023, dated 2024)
Where two headings read alike, the source gives them in different places.

Key:
[1] = test system: MM.1S; experiment: CCK-8 proliferation, MM.1S; assay type: cell-based; settings: Homo sapiens, MM1.S; CCK-8; 72 hours; read-out: Inhibitory activity (IC50) on tumor cell proliferation, MM1S
Outline: (§1)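 Cells seeded, then after 24 h treated with 10 concentrations (top 10 µM, 5-fold serial dilution) for a line-specific time at 37°C, 5% CO2. Viability read by CCK-8; IC50 fitted from growth-inhibition curves.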

[2] = test system: CCRF-CEM; experiment: CCK-8 proliferation, CCRF-CEM; assay type: cell-based, Human; settings: Homo sapiens, CCRF-CEM; CCK-8; 96 hours; read-out: Inhibitory activity (IC50) on tumor cell proliferation, CCRF-CEM
Outline: as §1

[3] = test system: MCF7; experiment: CCK-8 proliferation, MCF7 (MCF-7); assay type: cell-based; settings: Homo sapiens, MCF7; CCK-8; read-out: Inhibitory activity (IC50) on tumor cell proliferation, MCF7
Outline: as §1

[4] = test system: H1975; experiment: CCK-8 proliferation, NCI-H1975 (H1975); assay type: cell-based, Human; settings: Homo sapiens, read-out: Inhibitory activity (IC50) on tumor cell proliferation, H1975
Outline: as §1

[5] = test system: 22RV1; experiment: CCK-8 proliferation, 22RV1; assay type: cell-based; settings: Homo sapiens, 96 hours, read-out: Inhibitory activity (IC50) on tumor cell proliferation, 22RV1
Description: (§2) The tumor cells used herein were cultured in a cell culture medium listed in table A1 at 37°C in an incubator with 5% CO2. Prior to experimentation, all cell lines used were correctly identified by STR profiling, and tested negative for mycoplasma contamination using a mycoplasma detection kit through routine screenings. Table A1. Tumor cells and cell culture medium used in the present disclosure
(§3) IC50 values of the compounds of the present disclosure (including the compounds in Table 1, and compounds of examples) were measured using the Meilun Cell Counting Kit-8 kit from Dalian Meilun Biotech Co., Ltd. Assay details are as follows: tumor cells were seeded in a 96-well plate at a density listed in Table A2. After 24h, 100 µL of the inoculated cells were treated with 0.5µL of the compounds of the present disclosure (including the compounds in Tables 1 and 2, and compounds of examples) at 10 different successively decreasing concentrations (starting at the highest concentration of 10µM; 5-fold serial dilutions). After the cells were treated with the compounds of the present disclosure for a period of time, the cell viability detection reagent was added to the culture medium for cell viability assessment according to the instructions provided with the CCK-8 kit. […] The growth inhibition of the compounds of the present disclosure on cells was plotted by Prism Graphpad software, and the IC50 values of the compounds of the present disclosure were calculated therefrom. […] Seeding protocol and treatment time for tumor cells

[6] = test system: MV-4-11; experiment: CCK-8 proliferation, MV-4-11; assay type: cell-based, Human; settings: Homo sapiens, MV4-11; CCK-8; 72 or 96 hours; read-out: Inhibitory activity (IC50) on tumor cell proliferation, MV-4-11
Outline: as §1

[7] = target: T1, CDK4 (Homo sapiens, UniProt P11802); experiment: Western blot degradation of CDK4 (MDA-MB-231 Cell); assay type: cell-based; settings: Table D3
T1 construct: evaluate the effects of the compounds of the present disclosure on the expression of target proteins in cells; endogenous in cells; host or cells: MDA-MB-231
Outline: (§4)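 Quantification by ImageJ densitometry of Western blot bands: DC50 is the fitted concentration halving band intensity relative to DMSO. Percent remaining uses internal-control normalization, and degradation rate is its complement.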

[8] = target: T2, CDK6 (Homo sapiens, UniProt Q00534); experiment: Western blot degradation of CDK6 (MDA-MB-231 Cell); assay type: cell-based; settings: Table D3
T2 construct: evaluate the effects of the compounds of the present disclosure on the expression of target proteins in cells; endogenous in cells; host or cells: MDA-MB-231
Outline: as §4

[9] = test system: Kasumi-1; experiment: CCK-8 proliferation, Kasumi-1; assay type: cell-based, Human; settings: Homo sapiens, Kasumi 1, 72 hours, read-out: Inhibitory activity (IC50) on tumor cell proliferation, Kasumi-1
Description: as §2, §3

[10] = test system: SR; experiment: CCK-8 proliferation, SR; assay type: cell-based, Human; settings: Homo sapiens, SR; CCK-8; 72 hours; read-out: Inhibitory activity (IC50) on tumor cell proliferation, SR
Outline: as §1

[11] = target: T3, human Cereblon WT GST-tagged protein (Homo sapiens, UniProt Q96SW2); experiment: CRBN binding, HTRF (CEREBLON BINDING kit); settings: Table II-2, CRBN binding screening, HTRF
T3 construct: purchased CISBIO 64BDCRBNPEH
Outline: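 After 3 h at room temperature, emission at 665 and 620 nm was measured in a homogeneous time-resolved fluorescence format. Compounds competed with a Thalidomide-Re probe for GST-tagged wild-type human CRBN, which was labelled with a Eu anti-GST antibody.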

[12] = test system: MM.1R; experiment: CCK-8 proliferation, MM.1R; assay type: cell-based; settings: CCK-8, 72 hours, read-out: Inhibitory activity (IC50) on tumor cell proliferation, MM.1R
Description: as §2, §3

T1 sequence (P11802 whole entry): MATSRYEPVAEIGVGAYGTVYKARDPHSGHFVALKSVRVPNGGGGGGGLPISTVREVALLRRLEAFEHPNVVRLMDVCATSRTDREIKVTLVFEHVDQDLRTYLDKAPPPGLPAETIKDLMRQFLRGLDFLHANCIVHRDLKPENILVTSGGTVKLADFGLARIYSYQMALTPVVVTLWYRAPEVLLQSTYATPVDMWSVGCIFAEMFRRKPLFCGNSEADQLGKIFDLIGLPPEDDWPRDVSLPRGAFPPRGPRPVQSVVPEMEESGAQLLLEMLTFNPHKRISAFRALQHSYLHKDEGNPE
T2 sequence (Q00534 whole entry): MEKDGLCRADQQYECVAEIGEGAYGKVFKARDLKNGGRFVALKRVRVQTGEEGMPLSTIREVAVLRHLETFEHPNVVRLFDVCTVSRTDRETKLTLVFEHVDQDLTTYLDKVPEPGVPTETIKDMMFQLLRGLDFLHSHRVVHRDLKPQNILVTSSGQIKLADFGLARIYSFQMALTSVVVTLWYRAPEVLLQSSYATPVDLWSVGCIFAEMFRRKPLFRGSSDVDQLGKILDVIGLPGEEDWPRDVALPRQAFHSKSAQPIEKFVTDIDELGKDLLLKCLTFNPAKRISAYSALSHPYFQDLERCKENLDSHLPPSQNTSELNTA
T3 sequence (Q96SW2 whole entry): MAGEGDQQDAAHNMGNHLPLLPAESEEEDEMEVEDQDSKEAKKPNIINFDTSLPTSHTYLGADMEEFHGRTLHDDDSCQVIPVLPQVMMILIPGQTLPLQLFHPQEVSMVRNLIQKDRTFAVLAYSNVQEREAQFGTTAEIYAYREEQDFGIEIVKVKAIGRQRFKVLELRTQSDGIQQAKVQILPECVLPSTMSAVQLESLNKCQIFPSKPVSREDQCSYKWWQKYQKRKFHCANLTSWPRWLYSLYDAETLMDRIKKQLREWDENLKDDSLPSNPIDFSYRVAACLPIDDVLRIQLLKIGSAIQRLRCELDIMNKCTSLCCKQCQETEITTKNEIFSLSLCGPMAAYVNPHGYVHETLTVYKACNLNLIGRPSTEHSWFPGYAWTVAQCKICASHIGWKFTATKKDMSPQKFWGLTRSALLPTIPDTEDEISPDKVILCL

SMILES	IC50 [1]	IC50 [2]	IC50 [3]	IC50 ([4]; NCI-H1975, CCK-8, 96 hours)	IC50 [5]	IC50 [6]	inhibition at 0.5 µM ([11]; at 0.5µM, read-out: Inhibition rate (%) at 0.5µM)	inhibition at 2 µM ([11]; at 2 µM, read-out: Inhibition rate (%) at 2 µM)	IC50 [12]	Degradation of substrate protein CDK4 (substrate protein remaining %) [7]	Degradation of substrate protein CDK6 (substrate protein remaining %) [8]	IC50 [9]	IC50 [10]	IC50 ([4]; NCI-H1975, 96 h)
Cc1nc2c(F)cc(-c3nc(Nc4ccc(CN5CCN(Cc6ccc(C7CCC(=O)NC7=O)cc6)CC5)cn4)ncc3F)cc2n1C(C)C (stereo not drawn) [GT-06664, 3-(4-((4-((6-((5-fluoro-4-(4-fluoro-1-isopropyl-2-methyl-1H-benzo[d]imidazol-6-yl)pyrimidin-2-yl)amino)pyridin-3-yl)methyl)piperazin-1-yl)methyl)phenyl)piperidine-2,6-dione]		0.5 to 1 µM		0.5 to 1 µM	0.05 to 0.1 µM	0.01 to 0.05 µM				A (A is defined as 0% ≤ substrate protein remaining % ≤ 80%)	B (B is defined as substrate protein remaining % > 80%)	0.1 to 0.5 µM	0.1 to 0.5 µM	
CCN1CCN(Cc2ccc(Nc3ncc(F)c(-c4cc(F)c5nc(C)n(C(C)C)c5c4)n3)nc2)CC1 [abemaciclib, reference compound]	1 to 5 µM	1 to 5 µM	1 to 5 µM		0.01 to 0.05 µM	0.05 to 0.1 µM						0.5 to 1 µM	0.5 to 1 µM	1 to 5 µM
Cc1nc2c(F)cc(-c3nc(Nc4ccc(CN5CCN(Cc6ccc(N7CCC(=O)NC7=O)cc6)CC5)cn4)ncc3F)cc2n1C(C)C [GT-06665, 1-(4-((4-((6-((5-fluoro-4-(4-fluoro-1-isopropyl-2-methyl-1H-benzo[d]imidazol-6-yl)pyrimidin-2-yl)amino)pyridin-3-yl)methyl)piperazin-1-yl)methyl)phenyl)dihydropyrimidine-2,4(1H,3H)-dione]		0.5 to 1 µM	0.1 to 0.5 µM	0.1 to 0.5 µM	0.01 to 0.05 µM	0.01 to 0.05 µM				A (A is defined as 0% ≤ substrate protein remaining % ≤ 80%)	A (A is defined as 0% ≤ substrate protein remaining % ≤ 80%)	0.1 to 0.5 µM	0.1 to 0.5 µM	
Cc1nc2c(F)cc(-c3nc(Nc4ccc(N5CCC(N6CCN(Cc7ccc(C8CCC(=O)NC8=O)c(F)c7)CC6)CC5)cn4)ncc3F)cc2n1C(C)C (stereo not drawn) [GT-03906, 3-(2-fluoro-4-((4-(1-(6-((5-fluoro-4-(4-fluoro-1-isopropyl-2-methyl-1H-benzo[d]imidazol-6-yl)pyrimidin-2-yl)amino)pyridin-3-yl)piperidin-4-yl)piperazin-1-yl)methyl)phenyl)piperidine-2,6-dione]	0.01 to 0.05 µM	0.1 to 0.5 µM	0.1 to 0.5 µM	0.1 to 0.5 µM					0.05 to 0.1 µM	A (A is defined as 0% ≤ substrate protein remaining % ≤ 80%)	A (A is defined as 0% ≤ substrate protein remaining % ≤ 80%)	0.05 to 0.1 µM	0.05 to 0.1 µM	

Continued, in another order:

IC50 [1]	IC50 [2]	IC50 [3]	IC50 ([4]; NCI-H1975, CCK-8, 96 hours)	IC50 [5]	IC50 [6]	inhibition at 0.5 µM ([11]; at 0.5µM, read-out: Inhibition rate (%) at 0.5µM)	inhibition at 2 µM ([11]; at 2 µM, read-out: Inhibition rate (%) at 2 µM)	IC50 [12]	SMILES	Degradation of substrate protein CDK4 (substrate protein remaining %) [7]	Degradation of substrate protein CDK6 (substrate protein remaining %) [8]	IC50 [9]	IC50 [10]	IC50 ([4]; NCI-H1975, 96 h)
0.05 to 0.1 µM	0.1 to 0.5 µM	0.05 to 0.1 µM	0.05 to 0.1 µM	0.01 to 0.05 µM					Cc1nc2c(F)cc(-c3nc(Nc4ccc(N5CCC(N6CCN(Cc7cc(N8CCC(=O)NC8=O)ncc7F)CC6)CC5)cn4)ncc3F)cc2n1C(C)C [GT-07486, 1-(5-fluoro-4-((4-(1-(6-((5-fluoro-4-(4-fluoro-1-isopropyl-2-methyl-1H-benzo[d]imidazol-6-yl)pyrimidin-2-yl)amino)pyridin-3-yl)piperidin-4-yl)piperazin-1-yl)methyl)pyridin-2-yl)dihydropyrimidine-2,4(1H,3H)-dione]					
	0.1 to 0.5 µM	0.1 to 0.5 µM		0.01 to 0.05 µM	0.1 to 0.5 µM				CC(=O)c1c(C)c2cnc(Nc3ccc(N4CCC(N5CCN(Cc6ccc(C7CCC(=O)NC7=O)cc6)CC5)CC4)cn3)nc2n(C2CCCC2)c1=O (stereo not drawn) [GT-06659, 3-(4-((4-(1-(6-((6-acetyl-8-cyclopentyl-5-methyl-7-oxo-7,8-dihydropyrido[2,3-d]pyrimidin-2-yl)amino)pyridin-3-yl)piperidin-4-yl)piperazin-1-yl)methyl)phenyl)piperidine-2,6-dione]	A (A is defined as 0% ≤ substrate protein remaining % ≤ 80%)	A (A is defined as 0% ≤ substrate protein remaining % ≤ 80%)	0.1 to 0.5 µM		
	0.1 to 0.5 µM	0.1 to 0.5 µM		0.05 to 0.1 µM	0.01 to 0.05 µM				Cc1nc2c(F)cc(-c3nc(Nc4ccc(CN5CCN(Cc6ccc(N7CCC(=O)NC7=O)cn6)CC5)cn4)ncc3F)cc2n1C(C)C [GT-06667, 1-(6-((4-((6-((5-fluoro-4-(4-fluoro-1-isopropyl-2-methyl-1H-benzo[d]imidazol-6-yl)pyrimidin-2-yl)amino)pyridin-3-yl)methyl)piperazin-1-yl)methyl)pyridin-3-yl)dihydropyrimidine-2,4(1H,3H)-dione]	A (A is defined as 0% ≤ substrate protein remaining % ≤ 80%)	A (A is defined as 0% ≤ substrate protein remaining % ≤ 80%)	0.1 to 0.5 µM	0.1 to 0.5 µM	
0.01 to 0.05 µM	0.05 to 0.1 µM	0.01 to 0.05 µM	0.05 to 0.1 µM	0.01 to 0.05 µM		30 to 40%	53 to 60%		Cc1nc2c(F)cc(-c3nc(Nc4ccc(N5CCC(N6CCN(Cc7ccnc(N8CCC(=O)NC8=O)c7)CC6)CC5)cn4)ncc3F)cc2n1C(C)C [GT-07487, 1-(4-((4-(1-(6-((5-fluoro-4-(4-fluoro-1-isopropyl-2-methyl-1H-benzo[d]imidazol-6-yl)pyrimidin-2-yl)amino)pyridin-3-yl)piperidin-4-yl)piperazin-1-yl)methyl)pyridin-2-yl)dihydropyrimidine-2,4(1H,3H)-dione]					
0.1 to 0.5 µM	0.1 to 0.5 µM		0.1 to 0.5 µM	0.01 to 0.05 µM	0.01 to 0.05 µM				Cc1nc2c(F)cc(-c3nc(Nc4ccc(N5CCC(N(C)Cc6ccc(C7CCC(=O)NC7=O)cc6)CC5)cn4)ncc3F)cc2n1C(C)C (stereo not drawn) [GT-06735, 3-(4-(((1-(6-((5-fluoro-4-(4-fluoro-1-isopropyl-2-methyl-1H-benzo[d]imidazol-6-yl)pyrimidin-2-yl)amino)pyridin-3-yl)piperidin-4-yl)(methyl)amino)methyl)phenyl)piperidine-2,6-dione]	A (A is defined as 0% ≤ substrate protein remaining % ≤ 80%)	A (A is defined as 0% ≤ substrate protein remaining % ≤ 80%)	0.1 to 0.5 µM	0.05 to 0.1 µM	
0.1 to 0.5 µM	0.05 to 0.1 µM	0.01 to 0.05 µM	0.1 to 0.5 µM	0.01 to 0.05 µM	0.01 to 0.05 µM				Cc1nc2c(F)cc(-c3nc(Nc4ccc(N5CCC(N6CCN(Cc7ccc(N8CCC(=O)NC8=O)nc7)CC6)CC5)cn4)ncc3F)cc2n1C(C)C [GT-06742, 1-(5-((4-(1-(6-((5-fluoro-4-(4-fluoro-1-isopropyl-2-methyl-1H-benzo[d]imidazol-6-yl)pyrimidin-2-yl)amino)pyridin-3-yl)piperidin-4-yl)piperazin-1-yl)methyl)pyridin-2-yl)dihydropyrimidine-2,4(1H,3H)-dione]			0.1 to 0.5 µM	0.01 to 0.05 µM	
